Laboratory results from patent publication US10442835B2, “Water-soluble rapamycin derivatives” (Zhejiang Hisun Pharmaceutical Co., Ltd., priority 2016, dated 2019).

Tests used:
DU145 = assay: In vivo tumor inhibitory efficacy against DU145 tumor in nude mice, intragastrical vs injection; conditions: for Mean Volume of Tumor: 3×/w, 4 w; for tumor inhibitory effect compared with intragastrical everolimus 5 mg/kg: compound I-1 tail vein injection, end of the test
Procedure: (§1) DU145 (the 3rd generation) tumors in the rapid proliferation stage inoculated in the axilla of nude mice were cut into tumor lumps with a size of 1 mm*1 mm*1 mm and then were inoculated subcutaneously to the right limb of nude mice using a trocar under a sterile condition. When the tumors grow to 150-200 mm^3, the mice were randomly divided into three groups and then administrated with the compounds for 4 weeks. The major diameter (a) and the minor diameter (b) of the tumors were measured 2 or 3 times a week. The tumor volume (TV) was calculated with the following equation: TV=½×a×b^2. Tumors were stripped and weighted at Day 28 and the tumor inhibition rate was calculated using the following equation: (tumor weight of control−tumor weight of experimental group)/tumor weight of control×100%.
(§2) The nude mice were divided into 3 groups with 4 mice per group when the tumors averagely grew to about 185-200 mm^3, depending on the growth regularity of the tumor and the dosage regimen.

lung cancer cell NCI460 = assay: In vitro activity assay, growth of NCI460; type: cell-based; conditions: NCI-460, 48 h
Text: The anti-tumor activity and toxicity of the compounds according to the present invention can be assayed through standard operational procedures of pharmacological experiment. The experiments carried out herein can test the inhibitory effect of the compounds according to the present invention on the growth of human liver cancer cell HepG2, lung cancer cell NCI460, prostate cancer cell DU145, prostate cancer cell PC3, and human breast cancer cell MDA-MB-435. The operational procedure used is briefly described below by taking the inhibitory activity assay against human liver cancer cell HepG2 as an example.
The operational procedure for the assay is as follows:
1. Cells after being trypsinized were inoculated in 96-well plates at a concentration of 10^4 cells/well, and allowed to grow in a medium with a final volume of 200 μL. The 96-well plates after inoculation are allowed to stand for 24 hours at 37° C., in order to allow the cells to adhere to the surface of the wells.
2. The medium was removed by carefully pipetting without disturbing the cell monolayer. 200 μL Fresh medium was added into each well. It is arranged to make it possible to collect samples from enough wells to run the experiments in triplicate.
3. The compounds to be tested according to the present invention were dissolved into 10 μL phosphate buffered solution (PBS) and incubated for 48 h at 37° C.
4. In the last 6 h of incubation, cells in each well of the 96-well plates were labeled by 1 microcurie T thymidine (New England Nuclear thymidine), by adding 10 μL PBS containing 1 microcurie T thymidine (which was added into the PBS on the day of collecting the samples for test). The 96-well plates were then returned to the incubator and incubated for the last 6 h.
5. Without disturbing the cell monolayer, the radioactive medium was removed by pipetting. Then 50 μL of BRL 10×trypsin was added to each well, followed by incubation at 37° C. for 10 minutes or until the cell monolayer was detached from the bottom (or the wall) of each well. Samples were collected on glass-fiber diskettes using a Skatron 96-well cell harvester. Cells depositing on the glass-fiber diskettes were counted in a Wallac Betaplate counter.

[1] = Body weight of DU145 tumor nude mice; conditions: for Body Weight, mean value / Decrease rate (body weight) / Decrease in body weight: 3×/w, 4 w;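 as to all read-outs here: dosing started once xenografts reached 150-200 mm^3, with mice randomized into three groups, loss of body weight served as an indirect sign of drug toxicity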
Procedure: as §1, §2
G1: positive drug group: Everolimus (5 mg/kg, qw, 4 w, 3×/w); administration route: intragastrical administration;

[2] = Day 17, G3 compound I-1 1.7 mg/kg tail vein injection
[3] = Day 21, G2 compound I-1 3.4 mg/kg tail vein injection
[4] = Day 21, G3 compound I-1 1.7 mg/kg tail vein injection
[5] = Day 24, G2 compound I-1 3.4 mg/kg tail vein injection
[6] = Day 24, G3 compound I-1 1.7 mg/kg tail vein injection
[7] = Day 28, G2 compound I-1 3.4 mg/kg tail vein injection
[8] = Day 28, G3 compound I-1 1.7 mg/kg tail vein injection
[9] = Day 3, G2 compound I-1 3.4 mg/kg tail vein injection
[10] = Day 3, G3 compound I-1 1.7 mg/kg tail vein injection
[11] = Day 7, G2 compound I-1 3.4 mg/kg tail vein injection
[12] = Day 7, G3 compound I-1 1.7 mg/kg tail vein injection
[13] = Day 10, G2 compound I-1 3.4 mg/kg tail vein injection
[14] = Day 10, G3 compound I-1 1.7 mg/kg tail vein injection
[15] = Day 14, G2 compound I-1 3.4 mg/kg tail vein injection
[16] = Day 14, G3 compound I-1 1.7 mg/kg tail vein injection
[17] = Day 17, G2 compound I-1 3.4 mg/kg tail vein injection

## CO[C@H]1C[C@@H]2CC[C@@H](C)[C@@](O)(O2)C(=O)C(=O)N2CCCC[C@H]2C(=O)OC([C@H](C)C[C@@H]2CC[C@@H](OCCOC(=O)CSC[C@H](NC(=O)CC[C@H](N)C(=O)O)C(=O)NCC(=O)O)[C@H](OC)C2)CC(=O)[C@H](C)/C=C(\C)[C@@H](O)[C@@H](OC)C(=O)[C@H](C)C[C@@H](C)\C=C/C=C/C=C/1C (stereo partly shown) [Compound I-1]
DU145; [2]
  Mean Volume of Tumor: 280.18 mm^3
DU145; [3]
  Mean Volume of Tumor: 257.96 mm^3
DU145; [4]
  Mean Volume of Tumor: 300.52 mm^3
DU145; [5]
  Mean Volume of Tumor: 241.11 mm^3
DU145; [6]
  Mean Volume of Tumor: 288.39 mm^3
DU145; [7]
  Mean Volume of Tumor: 267.54 mm^3
DU145; [8]
  Mean Volume of Tumor: 323.75 mm^3
DU145; dosage equivalent to a quarter of that of everolimus (1.7 mg/kg)
  tumor inhibitory effect compared with intragastrical everolimus 5 mg/kg: substantially the same tumor inhibitory effect as that of intragastrical administration of everolimus
DU145; dosage equivalent to half of that of everolimus (3.4 mg/kg)
  tumor inhibitory effect compared with intragastrical everolimus 5 mg/kg: significantly superior to that of intragastric administration of everolimus
Lung cancer cell NCI460
  IC50: 27.204 ± 0.007 µM
[1]; Day 0, G2 compound I-1 3.4 mg/kg tail vein injection
  Body Weight, mean value: 25.30 g
[1]; Day 0, G3 compound I-1 1.7 mg/kg tail vein injection
  Body Weight, mean value: 26.86 g
[1]; [9]
  Body Weight, mean value: 25.92 g
  Decrease rate (body weight): −2.45%
[1]; [10]
  Body Weight, mean value: 27.32 g
  Decrease rate (body weight): −1.70%
[1]; Day 3 vs Day 0, G2 compound I-1 3.4 mg/kg tail vein injection
  Decrease in body weight: -0.62 g
[1]; Day 3 vs Day 0, G3 compound I-1 1.7 mg/kg tail vein injection
  Decrease in body weight: -0.46 g
[1]; [11]
  Body Weight, mean value: 26.13 g
  Decrease rate (body weight): −3.29%
[1]; [12]
  Body Weight, mean value: 27.17 g
  Decrease rate (body weight): −1.16%
[1]; Day 7 vs Day 0, G2 compound I-1 3.4 mg/kg tail vein injection
  Decrease in body weight: -0.83 g
[1]; Day 7 vs Day 0, G3 compound I-1 1.7 mg/kg tail vein injection
  Decrease in body weight: -0.31 g
[1]; [13]
  Body Weight, mean value: 26.15 g
  Decrease rate (body weight): −3.37%
[1]; [14]
  Body Weight, mean value: 27.18 g
  Decrease rate (body weight): −1.18%
[1]; Day 10 vs Day 0, G2 compound I-1 3.4 mg/kg tail vein injection
  Decrease in body weight: -0.85 g
[1]; Day 10 vs Day 0, G3 compound I-1 1.7 mg/kg tail vein injection
  Decrease in body weight: -0.32 g
[1]; [15]
  Body Weight, mean value: 26.59 g
  Decrease rate (body weight): −5.12%
[1]; [16]
  Body Weight, mean value: 27.69 g
  Decrease rate (body weight): −3.10%
[1]; Day 14 vs Day 0, G2 compound I-1 3.4 mg/kg tail vein injection
  Decrease in body weight: -1.30 g
[1]; Day 14 vs Day 0, G3 compound I-1 1.7 mg/kg tail vein injection
  Decrease in body weight: -0.83 g
[1]; [17]
  Body Weight, mean value: 26.34 g
  Decrease rate (body weight): −4.12%
[1]; [2]
  Body Weight, mean value: 27.81 g
  Decrease rate (body weight): −3.54%
[1]; Day 17 vs Day 0, G2 compound I-1 3.4 mg/kg tail vein injection
  Decrease in body weight: -1.04 g
[1]; Day 17 vs Day 0, G3 compound I-1 1.7 mg/kg tail vein injection
  Decrease in body weight: -0.95 g
[1]; [3]
  Body Weight, mean value: 26.84 g
  Decrease rate (body weight): −6.09%
[1]; [4]
  Body Weight, mean value: 28.10 g
  Decrease rate (body weight): −4.61%
[1]; Day 21 vs Day 0, G2 compound I-1 3.4 mg/kg tail vein injection
  Decrease in body weight: -1.54 g
[1]; Day 21 vs Day 0, G3 compound I-1 1.7 mg/kg tail vein injection
  Decrease in body weight: -1.24 g
[1]; [5]
  Body Weight, mean value: 26.58 g
  Decrease rate (body weight): −5.08%
[1]; [6]
  Body Weight, mean value: 28.12 g
  Decrease rate (body weight): −4.68%
[1]; Day 24 vs Day 0, G2 compound I-1 3.4 mg/kg tail vein injection
  Decrease in body weight: -1.29 g
[1]; Day 24 vs Day 0, G3 compound I-1 1.7 mg/kg tail vein injection
  Decrease in body weight: -1.26 g
[1]; [7]
  Body Weight, mean value: 26.96 g
  Decrease rate (body weight): −6.57%
[1]; [8]
  Body Weight, mean value: 28.27 g
  Decrease rate (body weight): −5.26%
[1]; Day 28 vs Day 0, G2 compound I-1 3.4 mg/kg tail vein injection
  Decrease in body weight: -1.66 g
[1]; Day 28 vs Day 0, G3 compound I-1 1.7 mg/kg tail vein injection
  Decrease in body weight: -1.41 g
[1]; injection administration of compound I-1 (3.4 and 1.7 mg/kg), judged from body weight
  toxic and side effect: does not result in obvious toxic and side effect
